How the values were obtained:
Human H460 NSCLC cells = assay: Oral efficacy in human H460 NSCLC xenografts in mice; type: in vivo; settings: H460 xenograft, CD1-Nu/Nu mice; oral gavage 100 mg/kg on day 8, 15, 22, 29; vs 5% dextrose or untreated; FIG. 1
Procedure: Human H460 NSCLC cells were obtained from American Type Cell Culture (ATCC) (catalog no. HTB-177, Manassas, Va.). These cells tested negative for viral contamination using the Mouse Antibody Production (MAP) test, performed by Charles River Labs Molecular Division, upon the receipt of the tumor cells from ATCC. The tumor cells were maintained at 37° C. in a humidified 5% CO2 atmosphere in T225 tissue culture flasks containing 50 mL of Roswell Park Memorial Institute (RPMI)-1640 solution with 10% Fetal Bovine Serum (FBS) and 2 mM L-glutamine. Cells were split at a ratio of 1:10 every 2-3 days by trypsinization and resuspended in fresh medium in a new flask. Cells were harvested for experiments in the same way at 70-90% confluency.
CD1-Nu/Nu female mice, ˜4-6 weeks old were obtained from Charles River Laboratories. Mice were housed 5 to a cage in a micro-isolator room in the Department of Animal Laboratory Research of New York State University (SUNY) at Stony Brook. Light-dark cycles were 12 h each daily, with light from 7 a.m. to 7 p.m. […]
An acclimation period of 7 days was allowed between the arrival of the animal at the study site before tumor inoculation and experimentation. […] Tumor dimensions (length and width) were measured daily before, during and after treatment (using Vernier calipers) and the tumor volume was calculated using the prolate ellipsoid formula: (length×width^2)/2. […]

[1] = system: relapsed or refractory T-cell lymphoma; settings: IV, days 1-4, 8, 11, 15, 18 of a 4 week cycle, 2000 mg/m^2 to 2750 mg/m^2, combined with bendamustine 90 mg/m^2; cited from earlier work
[2] = mouse, in vivo
Baf3-p210 cells = assay: Survival of Balb/c mice with Baf3-p210 syngeneic ALL tumors; type: in vivo; settings: CPI-613 250 mg/kg gavage once daily combined with doxorubicin 3 mg/kg IP for three days; compared to doxorubicin alone; FIG. 4
Procedure: Balb/c mice were injected into their tail veins with 1 million Baf3-p210 cells on Day 0 and beginning on Day 3, upon confirmation of engraftment by bioluminescence imaging, were treated with saline (control), doxorubicin (3 mg/kg IP in 200 μL PBS), or doxorubicin (3 mg/kg IP in 200 μL PBS) plus CPI-613 (250 mg/kg gavage of a 25 mg/mL solution of CPI-613 in 0.05 N NaOH in 5% dextrose, adjusted to pH 7.5-8 with 4% glacial acetic acid). and followed for survival. Doxorubicin was administered once daily for three consecutive days, and CPI-613 was administered once daily until death. P value was determined by log rank test.

MFL2 cells = assay: Survival of C57Bl/6 mice with MFL2 syngeneic AML tumors; type: in vivo
Procedure: C57Bl/6 mice were injected into their tail veins with 1 million MFL2 cells (Pardee, T. S. et al., Experimental Hematology, 2011, 39, 473-485) on Day 0 and beginning on Day 7, upon confirmation of engraftment by bioluminescence imaging, were treated by gavage with CPI-613 (300 mg/kg daily except weekends of a 50 mg/mL solution in 0.05 N NaOH in 5% dextrose, adjusted to pH 7.5-8 with 4% glacial acetic acid; 1 animal for the chloroquine experiment), intraperitoneally (IP) with chloroquine (200 μL (ca. 100 mg/kg) daily except weekends of a 10 mg/mL solution in PBS; Chlr; 3 animals), orally with metformin (1 mg/mL in the drinking water with ad lib access), or with a combination of CPI-613 (300 mg/kg daily gavage as above) and either chloroquine (200 μL daily IP as above; 4 animals) or metformin (1 mg/mL ad lib in drinking water as above) and followed for survival. Control animals (1 animal in chloroquine experiment) received both oral and IP vehicles. P value was determined by log rank test.

[3] = system: metastatic pancreatic adenocarcinoma; settings: combined with modified FOLFIRINOX, cited from earlier work
[4] = system: BxPC3 pancreatic cancer cells; assay: Oral efficacy in human BxPC3 pancreatic cancer xenografts in mice; type: in vivo; design: dose or concentration left out as unconfirmed; settings: BxPC3 xenograft, CD-1 nude mice; oral dose for 4 weeks; FIG. 2
Procedure: CD1-Nu/Nu female mice, ˜4-6 weeks old were obtained from Charles River Laboratories. Mice were housed 5 to a cage in a micro-isolator room in the Department of Animal Laboratory Research of New York State University (SUNY) at Stony Brook. Light-dark cycles were 12 h each daily, with light from 7 a.m. to 7 p.m. Food (Purina Rodent Chow) and water (distilled sterile-filtered water, pH 7) were provided ad libitum. Protocols and procedures were according to the rules of and approved by the SUNY Institutional Animal Care and Use Committee (IACUC).
An acclimation period of 7 days was allowed between the arrival of the animal at the study site before tumor inoculation and experimentation. Mice were inoculated subcutaneously (SC) in the right flank with 2×10^6 human H460 NSCLC or BxPC3 pancreatic cancer cells that were suspended in 0.1 mL of Dulbeco's Phosphate Buffered Salt (PBS) solution using a 1 cc syringe with a 27⅝ gauge needle. Tumor dimensions (length and width) were measured daily before, during and after treatment (using Vernier calipers) and the tumor volume was calculated using the prolate ellipsoid formula: (length×width^2)/2. Treatment with test or control articles began 8 days post tumor cell implantation when the tumor was approximately 300 mm^3.
A similar study was conducted in CD-1 nude mice (n=9) inoculated with 2×10^6 BxPC-3 cells. […]

[5] = system: myelodysplastic syndrome (MDS), acute myeloid leukemia (AML), Burkitt lymphoma, and cutaneous T-cell lymphoma (CTCL); settings: IV, days 1 and 4 of weeks 1, 2, 3 of a 4 week cycle, 840 mg/m^2 to 2940 mg/m^2 daily; cited from earlier work
[6] = after IV dosing; Pardee et al. 2014; cited from earlier work

O=C(O)CCCCC(CCSCc1ccccc1)SCc1ccccc1 (stereo not drawn)
tumor growth (tumor volume) (Human H460 NSCLC cells): grew much more slowly | efficacy in patients [1]: showed efficacy | oral bioavailability (in words) [2]: orally bioavailable | survival (Baf3-p210 cells): significantly prolongs survival | survival (MFL2 cells; CPI-613 300 mg/kg gavage combined with chloroquine ca. 100 mg/kg IP daily except weekends, FIG. 3A): significantly prolongs survival | survival (MFL2 cells; CPI-613 300 mg/kg gavage combined with metformin 1 mg/mL in drinking water, FIG. 3B): significantly prolongs survival | survival (MFL2 cells; CPI-613 300 mg/kg gavage daily except weekends from Day 7, FIGS. 3A, 3B): significantly prolongs survival | objective response ([3]; IV 500 mg/m^2 on days 1 and 3 of a two week cycle): 11 of 18 | maximum tolerated dose ([3]; IV, days 1 and 3 of a two week cycle): 500 mg/m^2 | tumor growth (tumor volume) [4]: especially pronounced | efficacy in patients [5]: showed efficacy | half-life [6]: 1 to 2 h

Source: US20220040133A1
